Assay [1] deals with extracted guinea pig ileum. Nature of the assay: Anti-CCK action in extracted guinea pig ileum (inhibition of CCK-8-induced contraction, Magnus tube). Also noted: species or system guinea pig (Hartley strain, male). The note with it: Cavia porcellus. The protocol:
Anti-cholecystokinin (CCK) Action in Extracted Guinea Pig Ileum After sacrificing a male guinea pig (Hartley strain) by striking and exsanguination, a piece of extracted ileum was suspended from a Magnus tube, while applying tension of 0.5 g, containing 30 ml of Tyrode's solution (NaCl 136.9 mM, KCl 2.68 mM, CaCl2 1.8 mM, MgCl2 1.05 mM, NaH2 PO4 0.42 mM, NaHCO3 11.9 mM and glucose 5.55 mM) and ventilated with mixed O2 gas containing 5% CO2 at 37° C. Changes in contraction were recorded on smoked paper for isotonicity via a bevel. The piece of ileum was allowed to stand undisturbed for 30 minutes and then contracted by addition 1×10^-8 M CCK-8. After washing, this was repeated several times. After the contraction by CCK-8 had stabilized, the test compound was added. Contraction resulting from addition of 1×10^-8 M CCK was then measured 5 minutes later. The contraction caused by CCK-8 and the contraction caused by CCK-8 in the presence of the test compound at varying concentrations were compared, and the resulting IC50 values (concentration of test substance at which contraction caused by CCK-8 is inhibited by 50%) are shown in Table 2. The compound numbers shown in Table 2 indicate the target compounds according to the numbers of the embodiments.

The target of another assay is T1, CCK-B (Rattus norvegicus, UniProt P30553).
T1 construct: CCK-B receptors originating in the cell membrane of rat brain cells; from tissue; host or cells: rat cerebrum membranes (male rats, Japan Laboratory Animals)
T1 sequence (P30553 1-452): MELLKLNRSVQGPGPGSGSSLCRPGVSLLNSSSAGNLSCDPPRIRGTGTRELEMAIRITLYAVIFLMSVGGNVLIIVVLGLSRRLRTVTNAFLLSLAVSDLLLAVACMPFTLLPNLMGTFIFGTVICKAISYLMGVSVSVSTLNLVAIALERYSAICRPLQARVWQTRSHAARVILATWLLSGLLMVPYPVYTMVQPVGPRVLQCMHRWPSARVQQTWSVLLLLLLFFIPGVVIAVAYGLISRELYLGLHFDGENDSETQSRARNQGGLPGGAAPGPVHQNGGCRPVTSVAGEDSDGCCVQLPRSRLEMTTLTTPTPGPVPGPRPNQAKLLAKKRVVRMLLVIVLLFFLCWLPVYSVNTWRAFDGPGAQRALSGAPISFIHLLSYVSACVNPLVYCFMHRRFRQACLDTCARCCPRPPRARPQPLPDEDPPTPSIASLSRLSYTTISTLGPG
Kind of assay: Central receptor (CCK-B) binding experiment, [^3 H]-CCK-8 binding inhibition. The note with it: rat cerebrum homogenate, 0.2 nM [^3 H]-CCK-8, 60 minutes at 25° C. The method, then:
(§1) Peripheral Receptor (CCK-A) and Central Receptor (CCK-B) Binding Experiment
(§2) The pancreas and cerebrum of male rats (Japan Laboratory Animals), which were sacrificed by decapitation and having body weights of 250-300 g, were extracted and immersed in cold Hepes buffer. After suspending these tissues using a Potter homogenizer, the suspension was centrifuged for 10 minutes at 48,000×g. The resulting residue was again suspended by addition of cold Hepes buffer and centrifuged for 10 minutes at 48,000×g. The resulting residue was transferred to cold incubation buffer.
(§3) A 1 ml aliquot of the homogenate was incubated for 60 minutes at 25° C. in the presence of 0.2 nM [^3 H]-CCK-8 and the test compound, in the presence of vehicle only (for measurement of 100% binding), or in the presence of 1 μM cold CCK-8 (for measurement of non-specific binding). Next, the reaction solution was promptly suction filtered using a Whatman glass GF/B filter immersed in Hepes buffer followed by washing the filter with cold Hepes buffer. Next, the glass filter was placed in Aquasol-2 followed by assay of radioactivity with a liquid scintillation counter.
(§4) The compound numbers shown in Table 3 indicate the target compounds according to the number of the embodiment.

Another assay addresses T2, CCK-A (Rattus norvegicus, UniProt P30551).
T2 construct: CCK-A receptors prepared from the cell membranes of rat pancreas; from tissue; host or cells: rat pancreas membranes (male rats, Japan Laboratory Animals)
T2 sequence (P30551 1-444): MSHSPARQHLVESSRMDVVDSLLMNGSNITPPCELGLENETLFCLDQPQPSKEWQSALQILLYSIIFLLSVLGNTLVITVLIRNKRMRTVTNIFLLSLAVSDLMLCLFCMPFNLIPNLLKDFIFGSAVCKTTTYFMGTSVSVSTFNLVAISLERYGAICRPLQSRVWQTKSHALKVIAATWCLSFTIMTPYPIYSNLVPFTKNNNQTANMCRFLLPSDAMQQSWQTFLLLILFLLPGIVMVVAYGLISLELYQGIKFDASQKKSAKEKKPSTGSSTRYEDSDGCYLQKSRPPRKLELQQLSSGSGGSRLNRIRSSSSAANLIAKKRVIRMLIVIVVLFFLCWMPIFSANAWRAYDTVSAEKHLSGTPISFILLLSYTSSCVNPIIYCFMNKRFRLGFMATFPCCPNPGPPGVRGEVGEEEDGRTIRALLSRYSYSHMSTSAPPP
Kind of assay: Peripheral receptor (CCK-A) binding experiment, [^3 H]-CCK-8 binding inhibition. Conditions: for CCK-B/CCK-A: ratio of IC50 values CCK-B/CCK-A (selectivity for CCK-A), 60 min. The method, then: as §1, §2, §3, §4

[2] abbreviates: contraction by 1×10^-8 M CCK-8, test compound added 5 minutes before, extracted ileum, 37° C, read-out: Active IC50.
[3] abbreviates: rat pancreas homogenate, 0.2 nM [^3 H]-CCK-8, 60 minutes at 25° C, read-out: CCK-A IC50.
The mark [4] stands for this setting: rat pancreas cell membranes, read-out: activity in binding experiment on CCK-A receptors prepared from the cell membranes of rat pancreas.

Where two headings read alike, the source gives them in different places.

With `O=C(N[C@@H](CSc1ncccc1C(=O)O)C(=O)N1CCN(C(c2ccccn2)c2ccccn2)CC1)c1cc2ccccc2[nH]1` [Compound 8-5, (R)-4-bis(2-pyridyl)methyl-1-[3-(3-carboxypyridin-2-yl)thio-2-(indol-2-yl)carbonylamino]propionylpiperazine], the IC50 was determined as 0.35 µM in assay [1] (setting [2]), 57 µM on CCK-B and 0.05 µM on CCK-A (setting [3]). For the same compound, the CCK-B/CCK-A at CCK-A is recorded as 1140.
Regarding `O=C(N[C@@H](CSc1ncccc1C(=O)O)C(=O)N1CCN(C(c2ccc(F)cc2)c2ccc(F)cc2)CC1)c1cc2ccccc2[nH]1` [Compound 10-4, (R)-4-bis(4-fluorophenyl)methyl-1-[3-(3-carboxypyridin-2-yl)thio-2-(indol-2-yl)carbonylamino]propionylpiperazine], the IC50 was determined as 0.048 µM in assay [1] (setting [2]), 36 µM at CCK-B, 0.006 µM at CCK-A (setting [4]) and 0.006 µM at CCK-A (setting [3]). The CCK-B/CCK-A at CCK-A was 6000.
With `O=C(N[C@@H](CSc1ncccc1C(=O)O)C(=O)N1CCN(C(c2ccccc2)c2ccccc2)CC1)c1cc2cc(O)ccc2[nH]1` [Compound 12-2, (R)-1-[3-(3-carboxypyridin-2-yl)thio-2-(5-hydroxyindol-2-yl)carbonylamino]propionyl-4-diphenylmethylpiperazine], the IC50 in assay [1] (setting [2]) came to 0.027 µM; on CCK-B it was 42 µM; at CCK-A (setting [4]), 0.005 µM; at CCK-A (setting [3]) it was 0.005 µM. Moreover, the CCK-B/CCK-A at CCK-A was determined as 8400.
As for `CCCCC(CCCC)N1CCN(C(=O)[C@H](CSc2ncccc2C(=O)O)NC(=O)c2cc3ccccc3[nH]2)CC1` [Compound 14-5, (R)-1-[3-(3-carboxypyridin-2-yl)thio-2-(indol-2-yl)carbonylamino]propionyl-4-(1-butylpentyl)piperazine], the values for the IC50 (in assay [1] (setting [2]); on CCK-B; at CCK-A (setting [3])) were 0.26 µM, 100 µM and 0.17 µM, respectively. The CCK-B/CCK-A on CCK-A stood at 588.
Turning to `CC(C)C(C(C)C)N1CCN(C(=O)[C@H](CSc2ncccc2C(=O)O)NC(=O)c2cc3ccccc3[nH]2)CC1` [Compound 15-4, (R)-1-[3-(3-carboxypyridin-2-yl)thio-2-(indol-2-yl)carbonylamino]propionyl-4-diisopropylmethylpiperazine], the IC50 was 0.12 µM in assay [1] (setting [2]), 8.8 µM at CCK-B and 0.03 µM at CCK-A (setting [3]). Further, the CCK-B/CCK-A on CCK-A is given as 293.
Consider `O=C(N[C@@H](CSc1nccnc1C(=O)O)C(=O)N1CCN(C(c2ccccc2)c2ccccc2)CC1)c1cc2ccccc2[nH]1` [Compound 17-3, (R)-1-[3-(3-carboxypyrazin-2-yl)thio-2-(indol-2-yl)carbonylamino)propionyl-4-diphenylmethylpiperazine], for which the IC50 worked out at 0.0072 µM in assay [1] (extracted guinea pig ileum, read-out: IC50 with respect to the extracted guinea pig ileum (in vitro)); 0.0072 µM in assay [1] (setting [2]); 13 µM on CCK-B; 0.56 µM on CCK-A (setting [3]). For the same compound, the CCK-B/CCK-A at CCK-A came to 23.
For the compound `O=C(N[C@@H](CSc1ncccc1P(=O)(O)O)C(=O)N1CCN(C(c2ccccc2)c2ccccc2)CC1)c1cc2ccccc2[nH]1` [Compound 22-4, (R)-4-diphenylmethyl-1-[3-(3-phosphonopyridin-2-yl)thio-2-(indol-2-yl)carbonylamino]propionylpiperazine], the IC50 in assay [1] (setting [2]) worked out at 0.036 µM; on CCK-B, 56 µM; on CCK-A (setting [3]) it was 0.02 µM. In addition, the CCK-B/CCK-A at CCK-A is 2800.
On the same counts, the results for `O=C(N[C@@H](CCn1nncc1C(=O)O)C(=O)N1CCN(C(c2ccccc2)c2ccccc2)CC1)c1cc2ccccc2[nH]1` [Compound 24-3, (S)-1-[4-(5-carboxy-1,2,3-triazol-1-yl)-2-(indol-2-yl)carbonylamino]butyryl-4-diphenylmethylpiperazine] are 0.12 µM, 69 µM, 0.037 µM and 1865.
As for `O=C(N[C@@H](CCc1ocnc1C(=O)O)C(=O)N1CCN(C(c2ccccc2)c2ccccc2)CC1)c1cc2ccccc2[nH]1` [Compound 26-5, (S)-1-[4-(4-carboxyoxazol-5-yl)-2-(indol-2-yl)carbonylamino]butyryl-4-diphenylmethylpiperazine], the IC50 in assay [1] (setting [2]) amounted to 0.017 µM; at CCK-B, 10 µM; on CCK-A (setting [3]), 0.016 µM. Moreover, the CCK-B/CCK-A at CCK-A was determined as 625.
Taken in the same sequence, the figures for `O=C(N[C@@H](Cc1ocnc1C(=O)O)C(=O)N1CCN(C(c2ccccc2)c2ccccc2)CC1)c1cc2ccccc2[nH]1` [Compound 27-5, (S)-1-[3-(4-carboxyoxazol-5-yl)-2-(indol-2-yl)carbonylamino]propionyl-4-diphenylmethylpiperazine] were 0.19 µM, 9.6 µM, 0.18 µM and 53.

The values above are taken from patent US5716958A, “Amino acid derivative having anti-CCK activity” (Tobishi Pharmaceutical Co., Ltd., priority 1994, dated 1998).
